Results on 14 compounds are retold here after ChEMBL document CHEMBL3259765, “ProTides of N-(3-(5-(2'-deoxyuridine))prop-2-ynyl)octanamide as potential anti-tubercular and anti-viral agents” (Bioorg Med Chem, 2014).

The test system of series [1] is Human betaherpesvirus 5. As to the kind of experiment: Antiviral activity against Human cytomegalovirus AD169 infected in HEL cells assessed as reduction in virus-induced cytopathicity after 7 days. Format: functional, organism-based. (Protection from cytopathic effect is a common read-out in antiviral testing.)
Series [2] in a line: Cytotoxicity against HEL cells assessed as reduction in cell growth after 3 to 5 days by Coulter counting analysis. Format: cell-based. The conditions noted are these: human.
Series [3] has as its system Human alphaherpesvirus 1. Description: Antiviral activity against thymidine kinase-positive Herpes simplex virus 1 KOS infected in HEL cells assessed as reduction in virus-induced cytopathicity after 3 days. The conditions noted are these: Human alphaherpesvirus 1, KOS, 72 h. Format: functional, organism-based.
A short description of series [4]: Cytotoxicity against HEL cells assessed as morphological changes after 3 to 5 days […]. Particulars: human. In kind it is cell-based.
Series [5] deals with Mycobacterium tuberculosis. Description: Antibacterial activity against Mycobacterium tuberculosis H37Rv ATCC 27294 up to 2 weeks by HT-SPOTi assay. In kind it is functional. The conditions noted are these: H37Rv ATCC 27294, 336 h.
Series [6] relates to Human alphaherpesvirus 2. Description: Antiviral activity against Herpes simplex virus 2 G infected in HEL cells assessed as reduction in virus-induced cytopathicity after 3 days. In kind it is functional, organism-based. Particulars: Human alphaherpesvirus 2, strain G, 72 h.
For series [7], the system named is Human alphaherpesvirus 1. Description: Antiviral activity against thymidine kinase-deficient ACV-resistant Herpes simplex virus 1 B-2006 infected in HEL cells assessed as reduction in virus-induced cytopathicity after 3 days. Particulars: Human alphaherpesvirus 1, B-2006, HEL, 72 h. In kind it is functional, organism-based.
Series [8] deals with Human alphaherpesvirus 3. Description: Antiviral activity against thymidine kinase-deficient Varicella zoster virus 07-1 infected in HEL cells assessed as reduction in viral plaque formation after 5 days. In kind it is functional, organism-based. Particulars: Human alphaherpesvirus 3, 07-1, HEL, 120 h.
Series [9] concerns Escherichia coli. As to the kind of experiment: Antibacterial activity against Escherichia coli DH5[alpha] ATCC 53868 after overnight incubation by HT-SPOTi assay. In kind it is functional, organism-based.
In series [10] the test system is Human alphaherpesvirus 3. As to the kind of experiment: Antiviral activity against thymidine kinase-positive Varicella zoster virus Oka infected in HEL cells assessed as reduction in viral plaque formation after 5 days. Format: functional, organism-based. The conditions noted are these: Human alphaherpesvirus 3, strain Oka vaccine, 120 h.
The test system of series [11] is Vaccinia virus. Description: Antiviral activity against Vaccinia virus infected in HEL cells assessed as reduction in virus-induced cytopathicity after 3 days. Particulars: Orthopoxvirus vaccinia. Format: functional, organism-based.
Series [12] has as its system Human betaherpesvirus 5. Description: Antiviral activity against Human cytomegalovirus Davis infected in HEL cells assessed as reduction in virus-induced cytopathicity after 7 days. In kind it is functional, organism-based.

Converted amounts (≈) assume the structure as drawn. The source made the active and inactive calls. The rule behind the calls is not given here.

As usually defined, the CC50 is the concentration at which the toxic effect on the cells reaches its halfway point. For orientation: EC50 means the midpoint of the concentration-response curve. One may read the MIC as the lowest concentration that inhibits growth of the organism.

Turning to `CCCCCCCC(=O)NCC#Cc1cn([C@H]2C[C@H](O)[C@@H](COP(=O)(N[C@@H](C)C(=O)OCC(C)C)Oc3cccc4ccccc34)O2)c(=O)[nH]c1=O` (stereo not given in full), the result in series [1], in [9], in series [11] and in series [12] was inactive. Moreover, the CC50 in series [2] was 15 µM. Besides, the EC50 was > 100 µM in series [3]; > 100 µM in series [6]; > 100 µM in series [7]; > 20 µM in [8]; 20 µM in [10]. Moreover, the MCC in series [4] was > 100 µM. 62.5 µg/mL (≈ 84.4 µM) was the least that counted as inhibitory in series [5] (MIC).

`CCCCCCCC(=O)NCC#Cc1cn([C@H]2C[C@H](O)[C@@H](COP(=O)(N[C@@H](C)C(=O)OCCC)Oc3ccccc3)O2)c(=O)[nH]c1=O` (stereo not given in full) gave an MIC in series [5] of 125 µg/mL (≈ 185 µM). The result in [9] was inactive.

Regarding `CCCCCCCC(=O)NCC#Cc1cn([C@H]2C[C@H](O)[C@@H](COP(=O)(N[C@@H](C)C(=O)OCc3ccccc3)Oc3cccc4ccccc34)O2)c(=O)[nH]c1=O` (stereo not given in full), the result in series [1], in series [9], in series [11] and in series [12] was inactive. The CC50 in series [2] was determined as 39 µM. In addition, the EC50 was > 100 µM in series [3]; > 100 µM in [6]; > 100 µM in series [7]; > 20 µM in [8]; 8.6 µM in series [10]. Further, in [4], the MCC was > 100 µM. In series [5], this compound came in with a minimum inhibitory concentration (MIC) of 250 µg/mL (≈ 323 µM).

Take `CCCCCCCC(=O)NCC#Cc1cn([C@H]2C[C@H](O)[C@@H](COP(=O)(NC(C)(C)C(=O)OCc3ccccc3)Oc3ccccc3)O2)c(=O)[nH]c1=O` (stereo not given in full): the minimum inhibitory concentration (MIC) in series [5] is > 125 µg/mL. Moreover, the outcome in series [9] was inactive.

Take `CCCCCCCC(=O)NCC#Cc1cn([C@H]2C[C@H](O)[C@@H](COP(=O)(N[C@H](C)C(=O)OCc3ccccc3)Oc3ccccc3)O2)c(=O)[nH]c1=O` (stereo not given in full): the MIC in series [5] was determined as 125 µg/mL (≈ 172 µM). The outcome in series [9] was inactive.

For the compound `CCCCCCCC(=O)NCC#Cc1cn([C@H]2C[C@H](O)[C@@H](COP(=O)(N[C@@H](C)C(=O)OC)Oc3ccccc3)O2)c(=O)[nH]c1=O` (stereo not given in full), in series [5], the minimal inhibitory concentration (MIC) is > 250 µg/mL. Also, the result in [9] was inactive.

`CCCCCCCC(=O)NCC#Cc1cn([C@H]2C[C@H](O)[C@@H](COP(=O)(N[C@@H](C)C(=O)OCC)Oc3cccc4ccccc34)O2)c(=O)[nH]c1=O` (stereo not given in full): in series [5], the MIC was found to be 125 µg/mL (≈ 175 µM). Also, in [9], the result was inactive.

`CCCCCCCC(=O)NCC#Cc1cn([C@H]2C[C@H](O)[C@@H](COP(=O)(N[C@@H](C)C(=O)OCC)Oc3ccccc3)O2)c(=O)[nH]c1=O` (stereo not given in full) displayed an MIC in series [5] of 250 µg/mL (≈ 377 µM). For the same compound, in [9], the result was inactive.

With `CCCCCCCC(=O)NCC#Cc1cn([C@H]2C[C@H](O)[C@@H](CO)O2)c(=O)[nH]c1=O`, the outcome in series [1], in series [9], in series [11] and in series [12] was inactive. The cytotoxic concentration (CC50) in series [2] is > 100 µM. Also, the EC50 in [3], in [6], in series [7], in [8] and in series [10] was > 100 µM each time. Besides, the minimal inhibitory concentration (MIC) in [5] was > 250 µg/mL.

On to `CCCCCCCC(=O)NCC#Cc1cn([C@H]2C[C@H](O)[C@@H](COP(=O)(N[C@@H](C)C(=O)OCc3ccccc3)Oc3ccccc3)O2)c(=O)[nH]c1=O` (stereo not given in full), for which the result in [1], in series [9], in series [11] and in series [12] was inactive. Moreover, the CC50 in series [2] stood at 48 µM. Further, the concentration giving a half-maximal response (EC50) in series [3] was 2 µM; in series [6], 4 µM; in [7], > 100 µM; in series [8] it was > 20 µM; in series [10], 2 µM. Moreover, the MCC in series [4] was > 100 µM. Also, the MIC in [5] turned out to be 125 µg/mL (≈ 172 µM).

In the case of `CCCCCCCC(=O)NCC#Cc1cn([C@H]2C[C@H](O)[C@@H](COP(=O)(N[C@@H](C)C(=O)OC)Oc3cccc4ccccc34)O2)c(=O)[nH]c1=O` (stereo not given in full), the outcome in series [1], in [9], in series [11] and in [12] was inactive. In addition, in series [2], the half-maximal cytotoxic concentration (CC50) was determined as 64 µM. Moreover, the EC50 in series [3] is > 100 µM; in series [6], > 100 µM; in [7], > 100 µM; in [8] it was 46 µM; in [10], 37 µM. Besides, in [4], the MCC was > 100 µM. For the same compound, in [5], 62.5 µg/mL (≈ 89.5 µM) was the least that counted as inhibitory (MIC).

Take `CCCCCCCC(=O)NCC#Cc1cn([C@H]2C[C@H](O)[C@@H](COP(=O)(N[C@H](C(=O)OCc3ccccc3)C(C)C)Oc3ccccc3)O2)c(=O)[nH]c1=O` (stereo not given in full): the minimum inhibitory concentration (MIC) in [5] was determined as 31.2 µg/mL (≈ 41.5 µM). The result in series [9] was inactive.

Regarding `Nc1nc2c(ncn2COCCO)c(=O)[nH]1` [ACYCLOVIR], in series [2], the CC50 was 440 µM. For the same compound, in series [4], the MCC was > 440 µM. The EC50 in [6] was 0.1 µM; in series [8], 140 µM; in series [10] it was 2.6 µM.

For `CCCCCCCC(=O)NCC#Cc1cn([C@H]2C[C@H](O)[C@@H](COP(=O)(NCC(=O)OCc3ccccc3)Oc3ccccc3)O2)c(=O)[nH]c1=O` (stereo not given in full), in series [5], the MIC was > 250 µg/mL. Moreover, the outcome in [9] was inactive.
